In patent US20090143279A1 (priority 2007, published 2009):

System: cytochrome c
Type: cell-based, mouse
Conditions: composite Z-score vs DMSO; Conc 20 μM

Structure (SMILES)	cyt c
C[C@H](N)CO [I-alaninol]	0.301

Same assay, conditions: composite Z-score vs mock-treated (DMSO) wells; Conc 20 μM

Structure (SMILES)	cyt c
CC(C)c1c(O)ccc2c1CCC1[C@@](C)(C=O)CCC[C@]21C (some centres unmarked) [totaralolal]	−0.226

Same assay, conditions: normalized composite Z-score vs mock-treated (DMSO) wells; Conc 20 μM

Structure (SMILES)	cyt c
Cc1c(O)c(O)cc2c1CC=C1[C@@]2(C)CC[C@@]2(C)[C@@H]3C[C@](C)(C(=O)O)CC[C@]3(C)CC[C@]12C [Dihydrocelastrol, reference compound]	−4.583
Nc1ccccc1C(=O)CC(N)C(=O)O (centres unmarked) [kynurenine]	0.162
CC(C)=CCc1c2c(c(O)c3c(=O)c(O)c(-c4ccccc4)oc13)C=CC(C)(C)O2 [sericetin]	−0.335
COc1ccc(-c2cc(=O)c3c(O)c(OC)c(O[C@@H]4O[C@H](CO[C@@H]5O[C@@H](C)[C@H](O)[C@@H](O)[C@H]5O)[C@@H](O)[C@H](O)[C@H]4O)cc3o2)cc1 [pectolinarin]	−0.739

System: OXPHOS gene expression
Type: cell-based, mouse
Conditions: composite Z-score vs DMSO; Conc 20 μM

Structure (SMILES)	GE-HTS
C[C@H](N)CO [I-alaninol]	−0.652

Same assay, conditions: composite Z-score vs mock-treated (DMSO) wells; Conc 20 μM

Structure (SMILES)	GE-HTS
CC(C)c1c(O)ccc2c1CCC1[C@@](C)(C=O)CCC[C@]21C (some centres unmarked) [totaralolal]	−0.700

Same assay, conditions: normalized composite Z-score vs mock-treated (DMSO) wells; Conc 20 μM

Structure (SMILES)	GE-HTS
Cc1c(O)c(O)cc2c1CC=C1[C@@]2(C)CC[C@@]2(C)[C@@H]3C[C@](C)(C(=O)O)CC[C@]3(C)CC[C@]12C [Dihydrocelastrol, reference compound]	−0.295
Nc1ccccc1C(=O)CC(N)C(=O)O (centres unmarked) [kynurenine]	−0.039
CC(C)=CCc1c2c(c(O)c3c(=O)c(O)c(-c4ccccc4)oc13)C=CC(C)(C)O2 [sericetin]	−0.890
COc1ccc(-c2cc(=O)c3c(O)c(OC)c(O[C@@H]4O[C@H](CO[C@@H]5O[C@@H](C)[C@H](O)[C@@H](O)[C@H]5O)[C@@H](O)[C@H](O)[C@H]4O)cc3o2)cc1 [pectolinarin]	−1.381

System: mtOXPHOS transcripts
Type: cell-based, mouse
Conditions: Table 7; C2C12 myotubes, 48 h, composite Z-score

Structure (SMILES)	mito-OXPHOS Z
Cc1c(O)c(O)cc2c1CC=C1[C@@]2(C)CC[C@@]2(C)[C@@H]3C[C@](C)(C(=O)O)CC[C@]3(C)CC[C@]12C [Dihydrocelastrol, reference compound]	−5.22

Same assay, conditions: composite Z-score vs DMSO; Conc 20 μM

Structure (SMILES)	mitoOX
C[C@H](N)CO [I-alaninol]	−0.738

Same assay, conditions: composite Z-score vs mock-treated (DMSO) wells; Conc 20 μM

Structure (SMILES)	mitoOX
CC(C)c1c(O)ccc2c1CCC1[C@@](C)(C=O)CCC[C@]21C (some centres unmarked) [totaralolal]	−1.230

Same assay, conditions: normalized composite Z-score vs mock-treated (DMSO) wells; Conc 20 μM

Structure (SMILES)	mitoOX
Cc1c(O)c(O)cc2c1CC=C1[C@@]2(C)CC[C@@]2(C)[C@@H]3C[C@](C)(C(=O)O)CC[C@]3(C)CC[C@]12C [Dihydrocelastrol, reference compound]	−5.217
Nc1ccccc1C(=O)CC(N)C(=O)O (centres unmarked) [kynurenine]	0.069
CC(C)=CCc1c2c(c(O)c3c(=O)c(O)c(-c4ccccc4)oc13)C=CC(C)(C)O2 [sericetin]	−1.132
COc1ccc(-c2cc(=O)c3c(O)c(OC)c(O[C@@H]4O[C@H](CO[C@@H]5O[C@@H](C)[C@H](O)[C@@H](O)[C@H]5O)[C@@H](O)[C@H](O)[C@H]4O)cc3o2)cc1 [pectolinarin]	−1.349

System: mitochondrial membrane potential
Type: cell-based, mouse
Conditions: composite Z-score vs DMSO; Conc 20 μM

Structure (SMILES)	ΔΨm
C[C@H](N)CO [I-alaninol]	−0.428

Same assay, conditions: composite Z-score vs mock-treated (DMSO) wells; Conc 20 μM

Structure (SMILES)	ΔΨm
CC(C)c1c(O)ccc2c1CCC1[C@@](C)(C=O)CCC[C@]21C (some centres unmarked) [totaralolal]	0.460

Same assay, conditions: normalized composite Z-score vs mock-treated (DMSO) wells; Conc 20 μM

Structure (SMILES)	ΔΨm
Cc1c(O)c(O)cc2c1CC=C1[C@@]2(C)CC[C@@]2(C)[C@@H]3C[C@](C)(C(=O)O)CC[C@]3(C)CC[C@]12C [Dihydrocelastrol, reference compound]	−3.514
Nc1ccccc1C(=O)CC(N)C(=O)O (centres unmarked) [kynurenine]	−0.058
CC(C)=CCc1c2c(c(O)c3c(=O)c(O)c(-c4ccccc4)oc13)C=CC(C)(C)O2 [sericetin]	6.788
COc1ccc(-c2cc(=O)c3c(O)c(OC)c(O[C@@H]4O[C@H](CO[C@@H]5O[C@@H](C)[C@H](O)[C@@H](O)[C@H]5O)[C@@H](O)[C@H](O)[C@H]4O)cc3o2)cc1 [pectolinarin]	−0.280

System: cellular dehydrogenase activity
Conditions: composite Z-score vs DMSO; Conc 20 μM

Structure (SMILES)	MTT
C[C@H](N)CO [I-alaninol]	−0.342

Same assay, conditions: composite Z-score vs mock-treated (DMSO) wells; Conc 20 μM

Structure (SMILES)	MTT
CC(C)c1c(O)ccc2c1CCC1[C@@](C)(C=O)CCC[C@]21C (some centres unmarked) [totaralolal]	1.526

Same assay, conditions: normalized composite Z-score vs mock-treated (DMSO) wells; Conc 20 μM

Structure (SMILES)	MTT
Cc1c(O)c(O)cc2c1CC=C1[C@@]2(C)CC[C@@]2(C)[C@@H]3C[C@](C)(C(=O)O)CC[C@]3(C)CC[C@]12C [Dihydrocelastrol, reference compound]	−5.524
Nc1ccccc1C(=O)CC(N)C(=O)O (centres unmarked) [kynurenine]	−0.912
CC(C)=CCc1c2c(c(O)c3c(=O)c(O)c(-c4ccccc4)oc13)C=CC(C)(C)O2 [sericetin]	−1.507
COc1ccc(-c2cc(=O)c3c(O)c(OC)c(O[C@@H]4O[C@H](CO[C@@H]5O[C@@H](C)[C@H](O)[C@@H](O)[C@H]5O)[C@@H](O)[C@H](O)[C@H]4O)cc3o2)cc1 [pectolinarin]	−0.475

System: nuOXPHOS transcripts
Type: cell-based, mouse
Conditions: Table 7; C2C12 myotubes, 48 h, composite Z-score

Structure (SMILES)	nucOXPHOS Z
Cc1c(O)c(O)cc2c1CC=C1[C@@]2(C)CC[C@@]2(C)[C@@H]3C[C@](C)(C(=O)O)CC[C@]3(C)CC[C@]12C [Dihydrocelastrol, reference compound]	2.18

Same assay, conditions: composite Z-score vs DMSO; Conc 20 μM

Structure (SMILES)	nucOX
C[C@H](N)CO [I-alaninol]	−0.555

Same assay, conditions: composite Z-score vs mock-treated (DMSO) wells; Conc 20 μM

Structure (SMILES)	nucOX
CC(C)c1c(O)ccc2c1CCC1[C@@](C)(C=O)CCC[C@]21C (some centres unmarked) [totaralolal]	−0.401

Same assay, conditions: normalized composite Z-score vs mock-treated (DMSO) wells; Conc 20 μM

Structure (SMILES)	nucOX
Cc1c(O)c(O)cc2c1CC=C1[C@@]2(C)CC[C@@]2(C)[C@@H]3C[C@](C)(C(=O)O)CC[C@]3(C)CC[C@]12C [Dihydrocelastrol, reference compound]	2.183
Nc1ccccc1C(=O)CC(N)C(=O)O (centres unmarked) [kynurenine]	−0.088
CC(C)=CCc1c2c(c(O)c3c(=O)c(O)c(-c4ccccc4)oc13)C=CC(C)(C)O2 [sericetin]	−0.670
COc1ccc(-c2cc(=O)c3c(O)c(OC)c(O[C@@H]4O[C@H](CO[C@@H]5O[C@@H](C)[C@H](O)[C@@H](O)[C@H]5O)[C@@H](O)[C@H](O)[C@H]4O)cc3o2)cc1 [pectolinarin]	−1.292

System: C2C12 myotubes
Conditions: composite Z-score vs DMSO; Conc 20 μM

Structure (SMILES)	Viability
C[C@H](N)CO [I-alaninol]	−0.353

Same assay, conditions: composite Z-score vs mock-treated (DMSO) wells; Conc 20 μM

Structure (SMILES)	Viability
CC(C)c1c(O)ccc2c1CCC1[C@@](C)(C=O)CCC[C@]21C (some centres unmarked) [totaralolal]	0.591

Same assay, conditions: normalized composite Z-score vs mock-treated (DMSO) wells; Conc 20 μM

Structure (SMILES)	Viability
Cc1c(O)c(O)cc2c1CC=C1[C@@]2(C)CC[C@@]2(C)[C@@H]3C[C@](C)(C(=O)O)CC[C@]3(C)CC[C@]12C [Dihydrocelastrol, reference compound]	−4.120
Nc1ccccc1C(=O)CC(N)C(=O)O (centres unmarked) [kynurenine]	−0.110
CC(C)=CCc1c2c(c(O)c3c(=O)c(O)c(-c4ccccc4)oc13)C=CC(C)(C)O2 [sericetin]	−0.783
COc1ccc(-c2cc(=O)c3c(O)c(OC)c(O[C@@H]4O[C@H](CO[C@@H]5O[C@@H](C)[C@H](O)[C@@H](O)[C@H]5O)[C@@H](O)[C@H](O)[C@H]4O)cc3o2)cc1 [pectolinarin]	−0.100

System: reactive oxygen species
Type: cell-based, mouse
Conditions: composite Z-score vs DMSO; Conc 20 μM

Structure (SMILES)	ROS
C[C@H](N)CO [I-alaninol]	0.242

Same assay, conditions: composite Z-score vs mock-treated (DMSO) wells; Conc 20 μM

Structure (SMILES)	ROS
CC(C)c1c(O)ccc2c1CCC1[C@@](C)(C=O)CCC[C@]21C (some centres unmarked) [totaralolal]	1.617

Same assay, conditions: normalized composite Z-score vs mock-treated (DMSO) wells; Conc 20 μM

Structure (SMILES)	ROS
Cc1c(O)c(O)cc2c1CC=C1[C@@]2(C)CC[C@@]2(C)[C@@H]3C[C@](C)(C(=O)O)CC[C@]3(C)CC[C@]12C [Dihydrocelastrol, reference compound]	−3.065
Nc1ccccc1C(=O)CC(N)C(=O)O (centres unmarked) [kynurenine]	1.941
CC(C)=CCc1c2c(c(O)c3c(=O)c(O)c(-c4ccccc4)oc13)C=CC(C)(C)O2 [sericetin]	0.124
COc1ccc(-c2cc(=O)c3c(O)c(OC)c(O[C@@H]4O[C@H](CO[C@@H]5O[C@@H](C)[C@H](O)[C@@H](O)[C@H]5O)[C@@H](O)[C@H](O)[C@H]4O)cc3o2)cc1 [pectolinarin]	1.058
